# Data from patent US9732088B2, “C2-carbocyclic iminothiazine dioxides as BACE inhibitors, compositions, and their use” (Merck Sharp & Dohme Corp., priority 2014, dated 2017).
# Legend:
# CSF Aβ40 = test: Aβ Reduction In Vivo (rat CSF Aβ40); settings: male CD IGS rats, 10 mg/kg oral gavage, CSF at 3 hours, change vs vehicle
# Protocol: Assay 5: Aβ Reduction In Vivo
# The in vivo efficacy and/or potency of BACE inhibitors (test compounds) can be evaluated using a variety of animal models, including mouse, rat, dog, and monkey, and these animals can be wild type, transgenic, or gene knockout animals.
# Generally, animals are administered (by oral gavage, intravenous injection, or by other suitable route) a test compound in doses ranging from, for example, 0.1 mg/kg (mg of compound per kg of animal body weight) to 100 mg/kg formulated in vehicles, such as cyclodextrin, phosphate buffer, hydroxypropyl methylcellulose or other suitable vehicles. One to twenty-four hours following the administration of compound, animals are sacrificed, and tissues (for example, brain, cerebrospinal fluid (CSF), and/or plasma) are collected for analysis of Aβ levels and/or test compound concentrations (Dovey et al., 2001, Journal of Neurochemistry, 76, 173-181). Tissue samples are processed appropriately and then analyzed for the presence of Aβ by specific sandwich ELISA assays based on electrochemiluminescence (ECL) technology.
# For example, in the following assay for which data are reported below, male CD IGS rats (body weight approximately 120 g, Charles River Laboratories, Kingston, N.Y.) were used to assess lowering of CSF levels of Aβ1-40 (Aβ40) in the presence of compounds of the invention. At time 0, animals were administered by oral gavage a test compound at a dose of 10 mg/kg in 20% hydroxypropyl-β-cyclodextrin (dosing volume 5 mL/kg). A separate group of animals received 20% hydroxypropyl-β-cyclodextrin alone to serve as the vehicle control group. Three hours after administration, the rats were euthanized with excess CO2. Immediately following euthanasia, CSF was collected from the cisterna magna and quickly frozen on dry ice. Samples were stored at −80° C. until quantification of Aβ40 levels.
# The measurement of endogenous rat Aβ40 in CSF relied on the 585 antibody (Ab585, BioSource, NONO585), which specifically recognizes the N-terminal sequence of rodent Aβ40, and on the monoclonal antibody, G2-10, which specifically recognizes the free C-terminus of Aβ40. Ab585 was labeled with biotin (b-Ab585) by first dialyzing the antibody sample extensively versus PBS (pH 7.8) to remove impurities, followed by dilution to between 1 and 2 mg/mL protein concentration. EZ-Link Sulfo-NHS-LC-Biotin (Pierce) was dissolved in PBS (pH 7.8) at a concentration of 1 mg/mL immediately prior to use. Ab585 was labeled with EZ-Link Sulfo-NHS-LC-biotin using a 10:1 biotin:antibody ratio by incubation at room temperature for 1 hour. The labeling reaction was quenched by addition of 1.0 M glycine to a final concentration of 0.1 M followed by 10 minute incubation at room temperature. Glycine was removed by extensive dialysis versus PBS.
# For rat CSF Aβ40 determinations, a calibration curve of various concentrations of synthetic rodent Aβ40 was assayed in parallel with rat CSF samples in duplicate using an avidin-coated 96-well MSD plate (Mesoscale Diagnostics). Either 50 μL of rodent Aβ40 standards diluted in PBS (pH 7.4) supplemented with 1% BSA and 1% Tween-20 (standard diluent buffer) or 40 μL of standard diluent buffer plus 10 μL rat CSF were added to each 96 well avidin-coated plate. To each well was added 50 μL of 0.1 M HEPES (pH 7.5), 2% BSA, 2% Tween-20, 0.3 M NaCl (2×Aβ40 buffer) supplemented with the b-Ab585 capture and ruthenylated-G2-10 detection antibodies diluted to 1 μg/mL and 0.5 μg/mL, respectively. Plates were shaken for 1 min on a microplate shaker, covered to protect from light and incubated overnight (˜16 h) at 4° C. For detection, plates were first washed twice with 100 μL of 1×CSF Aβ40 buffer followed by addition of 160 μL of 1×MSD read buffer-T (Mesoscale Diagnostics) diluted in 1×CSF Aβ40 buffer. Plates were read on a MSD Sector Imager 2400 model (Mesoscale Diagnosotics). […]
# BACE-1 = BACE-1 (Homo sapiens (Human), UniProt P56817); test: BACE-1 Cellular Assay (Aβ in HEK293-APPswe/lon cells); assay type: cell-based; settings: 4 hours
# Chain of BACE-1 (P56817 46-501): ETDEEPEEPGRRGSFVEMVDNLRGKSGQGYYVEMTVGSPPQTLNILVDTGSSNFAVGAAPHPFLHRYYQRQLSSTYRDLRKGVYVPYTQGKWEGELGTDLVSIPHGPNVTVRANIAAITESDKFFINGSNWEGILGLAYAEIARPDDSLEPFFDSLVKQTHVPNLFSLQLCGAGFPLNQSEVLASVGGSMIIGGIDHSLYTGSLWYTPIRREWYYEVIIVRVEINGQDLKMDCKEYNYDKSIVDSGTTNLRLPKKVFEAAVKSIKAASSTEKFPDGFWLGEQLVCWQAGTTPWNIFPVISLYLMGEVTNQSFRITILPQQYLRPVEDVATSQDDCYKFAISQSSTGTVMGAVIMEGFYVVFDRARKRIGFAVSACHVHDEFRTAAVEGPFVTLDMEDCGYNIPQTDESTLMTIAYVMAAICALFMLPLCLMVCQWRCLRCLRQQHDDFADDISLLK
# Outline: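 HEK293 cells stably expressing human APP with Swedish and London FAD mutations, cultured at 37° C., 5% CO2. Aβ40 or Aβ42 in conditioned media measured by electrochemiluminescent ELISA (WO2 capture; G2-10 or G2-11 detection). IC50 from variable-slope sigmoidal fit of signal versus compound concentration.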
Structure (SMILES),Aβ reduction in vivo in rat (Δ% CSF Aβ40 @ 10 mpk) (CSF Aβ40),IC50 (BACE-1) [nM]
"COc1cnc2c(Nc3ccc(F)c([C@]4(C)CS(=O)(=O)C(C)(C)C(N)=N4)c3)nccc2n1 [Ex 47 of WO2014059185, reference compound]",−88%,
"C[C@@]1(c2nc(Nc3nccc4cc(C#N)cnc34)ncc2F)CS(=O)(=O)[C@@](C)(C2CC2)C(N)=N1 [Example 5, 8-({4-[(3R,6S)-6-cyclopropyl-5-imino-3,6-dimethyl-1,1-dioxidothiomorpholin-3-yl]-5-fluoropyrimidin-2-yl}amino)-1,7-naphthyridine-3-carbonitrile]",,10
"COc1cnc2c(Nc3cc([C@]4(C)CS(=O)(=O)[C@@](C)(C5CC5)C(N)=N4)c(F)cn3)nccc2c1 [Example 6, N-{4-[(3R,6S)-6-cyclopropyl-5-imino-3,6-dimethyl-1,1-dioxidothiomorpholin-3-yl]-5-fluoropyridin-2-yl}-3-methoxy-1,7-naphthyridin-8-amine]",−92%,3
"COc1cnc2c(Nc3ccc(F)c([C@]4(C)CS(=O)(=O)[C@@](C)(C5CC5)C(N)=N4)c3)nccc2c1 [Example 14, N-{3-[(3R,6S)-6-cyclopropyl-5-imino-3,6-dimethyl-1,1-dioxidothiomorpholin-3-yl]-4-fluorophenyl}-3-methoxy-1,7-naphthyridin-8-amine]",,21
"C[C@@]1(c2cc(Nc3ncnc4cc(C#N)cnc34)ccc2F)CS(=O)(=O)[C@@](C)(C2CC2)C(N)=N1 [Example 16, 4-({3-[(3R,6S)-6-cyclopropyl-5-imino-3,6-dimethyl-1,1-dioxidothiomorpholin-3-yl]-4-fluorophenyl}amino)pyrido[3,2-d]pyrimidine-7-carbonitrile]",−85%,2.6
"C[C@@]1(c2cc(Nc3nccc4cc(C#N)cnc34)ccc2F)CS(=O)(=O)[C@@](C)(C2CC2)C(N)=N1 [Example 18, 8-({3-[(3R,6S)-6-cyclopropyl-5-imino-3,6-dimethyl-1,1-dioxidothiomorpholin-3-yl]-4-fluorophenyl}amino)-1,7-naphthyridine-3-carbonitrile]",−87%,4.8
"COc1cnc2c(Nc3ccc(F)c([C@]4(C)CS(=O)(=O)[C@@](C)(C5CC5)C(N)=N4)c3)ncnc2n1 [Example 22, (2S,5R)-2-cyclopropyl-5-(2-fluoro-5-((7-methoxypteridin-4-yl)amino)phenyl)-3-imino-2,5-dimethylthiomorpholine 1,1-dioxide]",−70%,15
"CC1(C)C(=N)N[C@](C)(c2cc(Nc3noc4cc(F)cnc34)ccc2F)CS1(=O)=O [WO′426 Ex. 30b, reference compound]",+6%,82
